Where “and” joins values, the source holds several entries; their conditions need not be identical. Equal values may be shown once.
Columns and labels:
CYP2D6 [1] = experiment: NLME PK model covariate: CYP2D6 activity score on endoxifen formation; assay type: in vivo, human
From the text: To derive a patient’s CYP2D6 phenotype, the available genotype information, i.e., detected genetic polymorphisms (single nucleotide polymorphisms, SNPs, and copy number variants, CNVs), was translated via three steps: (1) From the reported nucleotide variation (wild-type ‘wt’ or altered nucleotide sequence ‘mut’) to a biallelic genotype, e.g., wt/mut: ^∗1/^∗41; (2) from the genotype to the activity score (AS), e.g., ^∗1/^∗41 → 1.5; (3) From the AS to the ‘traditional’ CYP2D6 phenotype category, e.g., 1.5 → normal metabolizer, gNM. […] Thus, each patient in the PK database was assigned a CYP2D6 activity score (seven AS categories from 0 to 3 in intervals of 0.5) and a respective CYP2D6 phenotype [four categories: poor (gPM, AS: 0), intermediate (gIM, AS: 0.5), normal (gNM, AS:1-2), and ultrarapid (gUM, […]) metabolizer; see Figure 1]. The prefix ‘g’ indicates the phenotype prediction from genotype.
(§1) Secondly, a covariate model refinement step was performed, selecting the most appropriate covariate functions for the preselected covariates, with respect to numerical and statistical evaluation criteria. Finally, the refined full covariate model was evaluated based on physiological plausibility of the estimated effect, statistical significance and clinical relevance criteria using advanced model evaluation techniques (Supplementary Material 1, see section “Advanced Model Evaluation Diagnostics”). To explore and quantify the reduction of unexplained variability upon introduction of covariate effects, the statistical model with the four levels of variability was exploited.
CYP2D6 activity score The CYP2D6 AS is a multichotomous covariate with seven ordered categories from 0 to 3 (step size of 0.5). For each patient in the PK database, an AS was derived from the reported CYP2D6 genotype.
The AS was introduced as ordered categorical covariate applying a fractional change model with four categories representing the ‘traditional’ CYP2D6 phenotype classes investigating two different grouping types for the intermediate (IM) and normal (NM) metaboliser group (depending on whether AS=1 is classified as IM or NM, see Figure 1 in main text), or with six AS categories only grouping AS 2.5 and 3 (Equation 8). To model the CYP2D6 activity scores, fiveseparate categorical covariate effects (for AS subgroups: 0, 0.5, 1, 1.5 and 2.5-3) were estimated while AS=2 was set as reference category (i.e. for a typical patient with AS=2: CL23/F = θRef). An indicator variable XAS,i was coded as 1 for a patient belonging into the respective AS category or 0 otherwise.

CYP2D6 [2] = molecular target: T1, CYP2D6 (Homo sapiens, UniProt P10635); experiment: NLME PK model covariate: SSRI (paroxetine/fluoxetine) comedication (CYP2D6 inhibitors); assay type: in vivo; details: during strong CYP2D6-inhibitor comedication
T1 construct: endogenous in cells; host or cells: breast cancer patients (in vivo, clinical PK data)
Experimental: as §1

[3] = Clinical PK database of six pooled tamoxifen studies: observed minimum steady-state concentrations
[4] = parameters: method as in earlier work; details: ref Johnson et al., 2004, Kisanga et al., Lim et al., 2005, Mürdter et al., 2011, Gjerde et al., 2012; cited from earlier work
[5] = cited from earlier work
[6] = parameters: method as in Ahmad et al., 2010b; details: fixed in model, ref Ahmad et al., 2010b, cited from earlier work
[7] = Joint parent-metabolite NLME PK model of tamoxifen and endoxifen (structural, statistical and age covariate estimates); assay type: in vivo, human
From the text: PK parameters for tamoxifen and endoxifen were simultaneously estimated.
The statistical model aimed to incorporate four levels of variability around the structural model. Thus, and due to the nature of the database, a nested hierarchy of random-effects components was set up comprising interstudy (ISV), interindividual (IIV), interoccasion (IOV), and residual unexplained variability (RUV) (see Supplementary Figure S1). While ISV and IIV characterize random deviations between different studies and patients, respectively, IOV describes the random variability within an individual patient across different occasions. The RUV captures the remaining variability across all observations.
IIV was evaluated on all structural PK parameters and implemented using exponential IIV models (Equation 1). Resulting individual PK parameters were assumed to arise from a log-normal distribution in which the ηik values are normally distributed with mean zero and variance estimate ωk2 .
While 27% of the patients had samples collected on one occasion (study day, i.e., one dosing interval = 1 day) only, 73% of patients in the PK database had samples collected on three to four occasions (i.e., 3–4 days) with rich sampling during one occasion (dosing interval) in studies 3–6.
For the RUV, a log-transformed both sides approach was applied (Equation 3).
Since tamoxifen and endoxifen PK were analyzed simultaneously, separate but correlated RUV terms were estimated.
A study effect was introduced as additional variability term on top of the random individual effect (IIV) (study hierarchically above individual level, see Supplementary Figure S1 and Equation 4) ([Laporte-Simitsidis et al., 2000]),
The covariate model was developed using a full covariate model approach ([Tunblad et al., 2008]; [Ravva et al., 2009]; [Gastonguay, 2011]): first, covariates were pre-selected based on specific criteria and introduced simultaneously into a full covariate model (for details see Supplementary Material 1, see section “Covariate Submodel Development”). Secondly, a covariate model refinement step was performed, selecting the most appropriate covariate functions for the preselected covariates, with respect to numerical and statistical evaluation criteria. Finally, the refined full covariate model was evaluated based on physiological plausibility of the estimated effect, statistical significance and clinical relevance criteria using advanced model evaluation techniques (Supplementary Material 1, see section “Advanced Model Evaluation Diagnostics”). To explore and quantify the reduction of unexplained variability upon introduction of covariate effects, the statistical model with the four levels of variability was exploited.
Furthermore, endoxifen PK parameter values (CL30/F = 5.1 L/h and VENDX/F = 400 L) were informed and used from a clinical study administering endoxifen only ([Ahmad et al., 2010b]).

[8] = fractional change of endoxifen formation vs AS 2
[9] = 20 mg dose group, across all studies, steady-state
[10] = interindividual variability, final model
[11] = interoccasion variability, final model

T1 sequence (P10635 whole entry): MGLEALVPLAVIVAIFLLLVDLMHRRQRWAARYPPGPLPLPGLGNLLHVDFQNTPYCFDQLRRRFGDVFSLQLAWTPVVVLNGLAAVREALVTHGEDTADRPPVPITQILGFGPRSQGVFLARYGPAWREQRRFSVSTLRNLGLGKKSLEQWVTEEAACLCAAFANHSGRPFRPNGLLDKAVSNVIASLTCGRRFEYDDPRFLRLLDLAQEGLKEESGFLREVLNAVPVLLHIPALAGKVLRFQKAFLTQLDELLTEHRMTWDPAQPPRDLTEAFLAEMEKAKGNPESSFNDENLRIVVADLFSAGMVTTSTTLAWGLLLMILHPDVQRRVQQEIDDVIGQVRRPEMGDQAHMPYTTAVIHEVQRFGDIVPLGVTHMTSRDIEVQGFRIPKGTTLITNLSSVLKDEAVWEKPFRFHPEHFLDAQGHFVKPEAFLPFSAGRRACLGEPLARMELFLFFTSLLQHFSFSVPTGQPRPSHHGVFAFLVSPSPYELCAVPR

CC/C(=C(\c1ccc(O)cc1)c1ccc(OCCNC)cc1)c1ccccc1 [endoxifen, 4-hydroxy-N-desmethyl-tamoxifen]
fractional decrease from CL23/F reference value (CYP2D6 [1]; AS 1): 32.3% | fractional decrease from CL23/F reference value (CYP2D6 [1]; AS 1.5): 21.1% | CL23/F_AS: 0 (CYP2D6 [1]; [8]): −0.722 | CL23/F_AS: 0.5 (CYP2D6 [1]; [8]): −0.510 | CL23/F_AS: 1 (CYP2D6 [1]; [8]): −0.323 | CL23/F_AS: 1.5 (CYP2D6 [1]; [8]): −0.211 | CL23/F_AS: 2.5-3 (CYP2D6 [1]; [8]): 0.533 | reduced endoxifen formation efficiency CL23/F (CYP2D6 [1]; intermediate metabolizers (AS: 0.5) vs AS 2): 51.0% | reduced endoxifen formation efficiency CL23/F (CYP2D6 [1]; poor metabolizers (AS: 0) vs AS 2): 72.2% | increased CL23/F (CYP2D6 [1]; ultrarapid metabolizer (AS ≥ 2.5) vs AS 2): 53.3% | change in endoxifen formation (CYP2D6 [2]): −65% | %CVgeom of Css,min [3, 9]: 84.4% | median Css,min [3, 9]: 10.7 ng/mL | range of Css,min [3, 9]: 0.70 to 45.5 ng/mL | overall risk of subtarget endoxifen concentrations, observed ([3]; observed population of PK database, CSS,min below 5.97 ng/mL): 28.9% | potency relative to parent tamoxifen [4]: 100 fold | hazard ratio of the endoxifen exposure-response relationship ([5]; ref Madlensky et al. (2011)): 0.71 | reduced risk of breast cancer recurrence related to endoxifen threshold concentration ([5]; ref Madlensky et al., 2011, Saladores et al., 2015): 26% | breast cancer patients not reaching proposed target endoxifen concentrations ([5]; tamoxifen standard dosing, ref Madlensky et al., 2011): ~20% | CL30/F ([6]; relative clearance of endoxifen): 5.1 L/h and 5.10 fixed L/h | VENDX/F ([6]; relative volume of distribution of endoxifen): 400 L and 400 fixed L | IIV CL23/F [7, 10]: 47.2 % CV | IIV CL23/F, variance estimate [7, 10]: 0.201 | IOV CL23/F, variance estimate [7, 11]: 0.0289 | IOV CL23/F ([7]; interoccasion variability, final model (SSRI effect included)): 17.1 % CV | CL23/F (Ref.) ([7]; relative formation of endoxifen, reference patient: CYP2D6 AS 2, 65 years, no rifampicin or SSRI): 0.493 L/h | IIV CL23/F before covariate inclusion ([7]; without CYP2D6 AS and SSRI covariates): 63.3 % CV | IOV CL23/F before considering SSRI effect ([7]; without covariate): 26.4 % CV

CC/C(=C(\c1ccccc1)c1ccc(OCCN(C)C)cc1)c1ccccc1 [tamoxifen, reference compound]
range of Css,min [3, 9]: 3.05 to 448 ng/mL | ka ([7]; absorption rate constant, oral tamoxifen): 1.78 h⁻¹ | IIV CL20/F, variance estimate [7, 10]: 0.148 | IOV CL20/F, variance estimate [7, 11]: 0.0222 | total ISV before covariate introduction ([7]; interstudy variability): 31.2 % CV | total ISV upon covariate introduction ([7]; interstudy variability): 16.1 % CV | tlag ([7]; lag time): 0.389 h | VTAM/F ([7]; relative central volume of distribution, reference patient): 1120 L | CL20/F (Ref.) ([7]; relative clearance of tamoxifen, reference patient: CYP2D6 AS 2, 65 years, no rifampicin or SSRI): 5.77 L/h | IOV CL20/F before implementing rifampicin effect ([7]; without covariate): 24.9 % CV

Reference: article PMC7136483 (Frontiers in Pharmacology, 2020)
